Experimental data taken from patent US9999704B2, “Amphiphilic degradable polymers for immobilization and sustained delivery of biomolecules” (University of Massachusetts, priority 2014, dated 2018).

Tested on: Human umbilical vein endothelial cells (HUVECs)
Assay: HUVEC-Matrigel tube formation assay
Assay type: cell-based
Settings: free S1P solution, 17 h
Procedure: The electrospun meshes were punched into circles of 6.3 mm in diameter, weighed and sterilized with UV irradiation (254 nm, 1 h for each side). Fresh S1P solutions in PBS were carefully loaded onto each mesh (for S1P release study: 5 μL of 0.76-μg/μL solution to achieve 3.8-μg S1P loading per mesh; for tube formation assay: 2 or 10 μL of 0.19-μg/μL solution to achieve 0.38-μg or 1.90-μg S1P loading per mesh). The S1P-loaded meshes were incubated at 37° C. for 1 h and 4° C. for another 4 h before they were air-dried in laminar flow hood overnight.
Human umbilical vein endothelial cells (HUVECs, ATCC, passage 6), were cultured on gelatin-coated plates in M199 medium with 20% fetal bovine serum (FBS), 3 ng/mL bFGF, 5 units/mL heparin and 100 U/100 μg/mL Pen/Strep at 37° C. under 5% CO2. The 96-well culture plate was coated with 50 μL/well growth factor reduced Matrigel and incubated at 37° C. for 0.5 h to allow Matrigel to solidify. Then HUVECs suspended in 100 μL of M199 medium with 0.1% FBS and 100 U/100 μg/mL Pen/Strep were seeded on the Matrigel at 2×10^4 cells/well. After 30 min of cell attachment, PBS solutions of S1P or S1P-loaded meshes were carefully added to each well, followed by continued incubation at 37° C. for 17 h. After removing the meshes and culture media, the HUVECs were fixed with 10% formalin saline solution and imaged with an Axiovert 40 CFL microscope equipped with a QImaging camera at 25× and 100× magnifications. The total tube length in each well (n=3-4) was quantified by ImageJ (NIH).

CCCCCCCCCCCCC/C=C/[C@@H](O)[C@@H](N)COP(=O)(O)O [S1P, Sphingosine-1-phosphate]
total tube length (1-μM, no polymer carrier): increased
total tube length (10-μM, no polymer carrier): proangiogenic effect was compromised
total tube length (50-μM, vs. no-S1P control): significantly inhibited tube formation
